Counter-ions that a name gives are not always drawn.
Tests used:
Assay type in all cases: biochemical
[1] = biological target: T1, GST-tagged recombinant full-length human Pim-2 (Homo sapiens, UniProt Q9P1W9); assay: PIM-2 Assay (as Example A); details: averaged IC50; 4 μM ATP, 1.0 μM PIM2tide, 1.5 nM Pim-2
T1 construct: GST-tagged recombinant full-length human Pim-2; GST
Procedure, shortened: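 IC50 was derived by 4-parameter logistic fitting of percent-of-control data over a 10-point, 3-fold series (highest 10 μM, 2% DMSO). Reactions held 1.5 nM GST-Pim-2 (full-length, human), 4 μM [γ-33P]ATP and 1.0 μM PIM2tide for 60 min at 22 °C, pH 7.4; 33P-peptide captured on P81 filters.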

[2] = biological target: recombinant rat PIM-3 (Rattus norvegicus, UniProt O70444); assay: PIM-3 Assay (as Example A); details: averaged IC50; 30 μM ATP, 3.75 μM PIM2tide, 0.5 nM PIM-3
Procedure, shortened: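 33P incorporation from 30 μM [γ-33P]ATP into 3.75 μM PIM2tide by 0.5 nM rat PIM-3, 60 min at 22 °C in pH 7.4 MOPS buffer, read by P81 filter capture and scintillation counting. Compounds tested in 3-fold dilutions up to 10 μM final, 2% DMSO; percent-of-control data fitted by 4-parameter logistic for IC50.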

[3] = biological target: PIM-1 (Homo sapiens, UniProt P11309); assay: Enzyme PIM-1 Assay ([33P]ATP incorporation into PIM2tide, filter plate); details: averaged IC50; 35 μM ATP, 7.5 μM PIM2tide, 0.25 nM PIM-1, 60 min at 22° C.
Chain of PIM-1 (P11309 whole entry, species assumed): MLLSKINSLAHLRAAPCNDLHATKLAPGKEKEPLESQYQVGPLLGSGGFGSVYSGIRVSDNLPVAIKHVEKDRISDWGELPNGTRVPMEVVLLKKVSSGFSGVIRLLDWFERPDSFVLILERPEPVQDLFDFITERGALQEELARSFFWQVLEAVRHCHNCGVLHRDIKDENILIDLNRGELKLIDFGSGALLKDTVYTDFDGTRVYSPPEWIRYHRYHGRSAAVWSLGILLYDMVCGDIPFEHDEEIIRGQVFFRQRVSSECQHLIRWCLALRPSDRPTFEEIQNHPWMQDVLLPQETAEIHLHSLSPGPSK
Procedure, shortened: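 Ten-point, 3-fold dilution series (10 μM top, 2% DMSO final) tested for inhibition of 33P transfer from 35 μM ATP to 7.5 μM PIM2tide by 0.25 nM PIM-1. Reaction 60 min, 22 °C, pH 7.4 MOPS/MgCl2 buffer; phosphocellulose capture, scintillation counting, IC50 where fitted POC equals 50.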

T1 sequence (Q9P1W9 whole entry): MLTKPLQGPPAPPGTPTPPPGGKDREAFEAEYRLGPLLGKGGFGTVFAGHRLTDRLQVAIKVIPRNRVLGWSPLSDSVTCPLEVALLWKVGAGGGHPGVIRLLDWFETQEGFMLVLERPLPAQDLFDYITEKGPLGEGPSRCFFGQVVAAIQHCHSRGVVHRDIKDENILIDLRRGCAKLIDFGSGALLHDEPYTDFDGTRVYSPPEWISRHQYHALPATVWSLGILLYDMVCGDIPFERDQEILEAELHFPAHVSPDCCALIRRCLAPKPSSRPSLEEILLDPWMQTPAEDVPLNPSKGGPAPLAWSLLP

SMILES	IC50 [1] [nM]	IC50 [2] [nM]	IC50 [3] [nM]
C[C@@]1(N)CCN([C@H](c2ccc3nnc(-c4ccc5cccc(C6CC6)c5n4)n3c2)C(F)(F)F)C1 [Example 95, (R)-1-((R)-1-(3-(8-cyclopropylquinolin-2-yl)-[1,2,4]triazolo[4,3-a]pyridin-6-yl)-2,2,2-trifluoroethyl)-3-methylpyrrolidin-3-amine dihydrochloride]	79	3	0.19
COCC(COC)Oc1cccc2ccc(-c3nnc4ccc([C@@H](N5CC[C@H](N)C5)C(F)(F)F)cn34)nc12 [Example 271, ((S)-1-((R)-1-(3-(8-(1,3-dimethoxypropan-2-yloxy)quinolin-2-yl)-[1,2,4]triazolo[4,3-a]pyridin-6-yl)-2,2,2-trifluoroethyl)pyrrolidin-3-aminedihydrochloride]	647	4.3	0.73
COC[C@@H](C)Oc1cccc2ccc(-c3nnc4ccc([C@@H](N5CC[C@H](N(C)C)C5)C(F)(F)F)cn34)nc12 [Example 303, (S)—N,N-dimethyl-1-((R)-2,2,2-trifluoro-1-(3-(8-((R)-1-methoxypropan-2-yloxy)quinolin-2-yl)-[1,2,4]triazolo[4,3-a]pyridin-6-yl)ethyl)pyrrolidin-3-amine dihydrochloride]	242	5.85	1.33
COCC(C)(C)Oc1cccc2ccc(-c3nnc4ccc([C@@H](N5CC[C@H](N)C5)C(F)(F)F)cn34)nc12 [Example 263, (S)-1-((R)-2,2,2-trifluoro-1-(3-(8-(1-methoxy-2-methylpropan-2-yloxy)quinolin-2-yl)-[1,2,4]triazolo[4,3-a]pyridin-6-yl)ethyl)pyrrolidin-3-amine formate]	454	3	0.66
CC(C)(C)NC(=O)c1ccc2ccc(-c3nnc4ccc([C@@H](N5CC[C@H](N)C5)C(F)(F)F)cn34)nc2c1C1CC1 [Example 83, 2-(6-((R)-1-((S)-3-aminopyrrolidin-1-yl)-2,2,2-trifluoroethyl)-[1,2,4]triazolo[4,3-a]pyridin-3-yl)-N-tert-butyl-8-cyclopropylquinoline-7-carboxamide dihydrochloride]	28	1	1.13
CC(C)Oc1cccc2ccc(-c3nnc4ccc([C@H](N5CCC(C)(O)C5)C(F)(F)F)cn34)nc12 (single isomer, unassigned; diastereomer 2) [Example 207]	> 1000	40	58
CC(C)Oc1cc(F)cc2ccc(-c3nnc4ccc([C@H](N5CC[C@H](N)C5)C(F)(F)F)cn34)nc12 [Example 135, (S)-1-((S)-2,2,2-trifluoro-1-(3-(6-fluoro-8-isopropoxyquinolin-2-yl)-[1,2,4]triazolo[4,3-a]pyridin-6-yl)ethyl)pyrrolidin-3-amine hydrochloride]	82	3	1.41
CO[C@H](C)COc1ccc2ccc(-c3nnc4ccc([C@@H](N5CC[C@H](N)C5)C(F)(F)F)cn34)nc2c1 [Example 277, (S)-1-((R)-2,2,2-trifluoro-1-(3-(7-((R)-2-methoxypropoxy)quinolin-2-yl)-[1,2,4]triazolo[4,3-a]pyridin-6-yl)ethyl)pyrrolidin-3-amine dihydrochloride]	231	0.7	0.28
CC(C)Oc1cccc2ccc(-c3nnc4ccc([C@@H](N5CC[C@](C)(N)C5)C(F)(F)F)cn34)nc12 [Example 93, (S)-3-methyl-1-((R)-2,2,2-trifluoro-1-(3-(8-isopropoxyquinolin-2-yl)-[1,2,4]triazolo[4,3-a]pyridin-6-yl)ethyl)pyrrolidin-3-amine dihydrochloride]	83	0.9	0.2
CC(C)(O)c1cccc2ccc(-c3nnc4ccc([C@@H](N5CC[C@H](N)C5)C(F)(F)F)cn34)nc12 [Example 225, 2-(2-(6-((R)-1-((S)-3-aminopyrrolidin-1-yl)-2,2,2-trifluoroethyl)-[1,2,4]triazolo[4,3-a]pyridin-3-yl)quinolin-8-yl)propan-2-ol]	139	1.1	0.27
COCCOc1ccc2ccc(-c3nnc4ccc([C@@H](N5CC[C@H](N)C5)C(F)(F)F)cn34)nc2c1Cl [Example 174, (S)-1-((R)-1-(3-(8-chloro-7-(2-methoxyethoxy)quinolin-2-yl)-[1,2,4]triazolo[4,3-a]pyridin-6-yl)-2,2,2-trifluoroethyl)pyrrolidin-3-amine hydrochloride]	> 100	0.8	1.1
N[C@H]1CCN([C@H](c2ccc3nnc(-c4ccc5cc(F)c(OCC6CC6)cc5n4)n3c2)C(F)(F)F)C1 [Example 134, (S)-1-((R)-1-(3-(7-(cyclopropylmethoxy)-6-fluoroquinolin-2-yl)-[1,2,4]triazolo[4,3-a]pyridin-6-yl)-2,2,2-trifluoroethyl)pyrrolidin-3-amine hydrochloride]	48	0.6	0.38
N[C@H]1CCN([C@H](c2ccc3nnc(-c4ccc5ccc(C6COC6)cc5n4)n3c2)C(F)(F)F)C1 [Example 316, (S)-1-((R)-2,2,2-trifluoro-1-(3-(7-(oxetan-3-yl)quinolin-2-yl)-[1,2,4]triazolo[4,3-a]pyridin-6-yl)ethyl)pyrrolidin-3-amine]	764	2.8	0.48
N[C@H]1CCN(C(c2ccc3nnc(-c4ccc5ccc(C6CC6)cc5n4)n3c2)C(F)(F)F)C1 (stereo partly drawn) [Example 3, (3S)-1-(1-(3-(7-cyclopropylquinolin-2-yl)-[1,2,4]triazolo[4,3-a]pyridin-6-yl)-2,2,2-trifluoroethyl)pyrrolidin-3-amine dihydrochloride]	53	0.3	0.13
COc1cccc2ccc(-c3nnc4ccc([C@H](N5CC[C@H](N)C5)C(F)(F)F)cn34)nc12 [Example 8, (S)-1-((S)-2,2,2-trifluoro-1-(3-(8-methoxyquinolin-2-yl)-[1,2,4]triazolo[4,3-a]pyridin-6-yl)ethyl)pyrrolidin-3-amine dihydrochloride]	151	2.5	1.31
CO[C@H](C)COc1cc(-c2nnc3ccc([C@@H](N4CC[C@H](N)C4)C(F)(F)F)cn23)nc2ccccc12 [Example 291, (S)-1-((R)-2,2,2-trifluoro-1-(3-(4-((R)-2-methoxypropoxy)quinolin-2-yl)-[1,2,4]triazolo[4,3-a]pyridin-6-yl)ethyl)pyrrolidin-3-amine formate]	82	0.5	0.19
COC[C@H](C)Oc1cccc2ccc(-c3nnc4ccc([C@@H](N5CC[C@H](N)C5)C(F)(F)F)cn34)nc12 [Example 141, (S)-1-((R)-2,2,2-trifluoro-1-(3-(8-((S)-1-methoxypropan-2-yloxy)quinolin-2-yl)-[1,2,4]triazolo[4,3-a]pyridin-6-yl)ethyl)pyrrolidin-3-amine dihydrochloride]	90	0.9	0.2
CC(C)NC(=O)c1cccc2ccc(-c3nnc4ccc([C@@H](N5CC[C@H](N)C5)C(F)(F)F)cn34)nc12 [Example 87, 2-(6-((R)-1-((S)-3-aminopyrrolidin-1-yl)-2,2,2-trifluoroethyl)-[1,2,4]triazolo[4,3-a]pyridin-3-yl)-N-isopropylquinoline-8-carboxamide dihydrochloride]	> 100	> 100	35.5
CCNC(=O)c1ccc2ccc(-c3nnc4ccc([C@@H](N5CC[C@H](N)C5)C(F)(F)F)cn34)nc2c1 [Example 38, 2-(6-((R)-1-((S)-3-aminopyrrolidin-1-yl)-2,2,2-trifluoroethyl)-[1,2,4]triazolo[4,3-a]pyridin-3-yl)-N-ethylquinoline-7-carboxamide dihydrochloride]	56	0.5	0.23
CCOc1cc2nc(-c3nnc4ccc([C@@H](N5CC[C@@](C)(N)C5)C(F)(F)F)cn34)ccc2cc1F [Example 293, (R)-1-((R)-1-(3-(7-ethoxy-6-fluoroquinolin-2-yl)-[1,2,4]triazolo[4,3-a]pyridin-6-yl)-2,2,2-trifluoroethyl)-3-methylpyrrolidin-3-amine hydrochloride]	468	1.1	0.4
COc1c(C2CC2)ccc2ccc(-c3nnc4ccc([C@@H](N5CC[C@H](N)C5)C(F)(F)F)cn34)nc12 [Example 69, (S)-1-((R)-1-(3-(7-cyclopropyl-8-methoxyquinolin-2-yl)-[1,2,4]triazolo[4,3-a]pyridin-6-yl)-2,2,2-trifluoroethyl)pyrrolidin-3-amine dihydrochloride]	38	0.5	0.21
